Data taken from patent US12624004B2 (Fudan University, priority 2019, dated 2026).
Like-named read-outs stand apart in the source and are kept apart here.

Legend:
[1] = target: T1, κ opioid receptor (Homo sapiens, UniProt P41145); experiment: Competition binding assay on membranes of CHO cells expressing κ opioid receptor, [3H]-labeled ligand
T1 construct: expressed in transfected cells; host or cells: CHO cells (membranes)
Outline: (§1)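 CHO membranes (20–30 μg protein) incubated with [3H]-labeled ligand at 1–2 nM and test compounds, 30 min at 30° C; nonspecific binding with 1 μM corresponding ligand. Filtered on GF/C, washed with 50 mM Tris-HCl pH 7.4, scintillation-counted. IC50 converted to Ki by Ki=IC50/(1+[L]/Kd).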

[2] = target: T2, μ opioid receptor (Homo sapiens, UniProt P35372); experiment: Competition binding assay on membranes of CHO cells expressing μ opioid receptor, [3H]-labeled ligand
T2 construct: expressed in transfected cells; host or cells: CHO cells (membranes)
Outline: as §1

[3] = Table 3-1, 1 μM concentration of compounds
[4] = Table 4-1, 1 μM concentration of compound

Work on COc1cccc(C2(O)CCCCC2CN(C)C)c1 (stereo not shown) [Tramadol, reference compound] yielded an inhibition at 10 µM ([1]; 0.5 h, Table 1-1, 10 μM concentration of compound, read-out: κOR Binding rate (%)) of 0%, an inhibition at 1 µM ([1]; 0.5 h, Table 2-1, 1 μM concentration of compound, read-out: κOR Binding rate (%)) of 0% and an inhibition at 1 µM ([1]; 0.5 h, Table 5-1, 1 μM concentration of compound, read-out: κOR Combination rate (%)) of 0%. For the same molecule, the “κOR Binding rate (%)” value [1, 3] was 0%, the “κOR Binding rate (%)” value [1, 4] was 0% and the inhibition at 1 µM ([2]; 0.5 h, Table 5-1, 1 μM concentration of compound, read-out: μOR Combination rate (%)) was 6 ± 0.4%. For the same molecule, the inhibition at 10 µM ([2]; Table 1-1, 10 μM concentration of compound, mean ± SD of three measurements, read-out: μOR Binding rate (%)) was 6 ± 0.4%, the inhibition at 1 µM ([2]; Table 2-1, 1 μM concentration of compound, read-out: μOR Binding rate (%)) was 6 ± 0.4% and the “μOR Binding rate (%)” value [2, 3] was 6.0%. For the same molecule, the “μOR Binding rate (%)” value [2, 4] was 6.0 ± 0.4%.
